CC(C)=CCC[C@@H](C)[C@H]1CC[C@@]2(C)C3=C(CC[C@]12C)[C@@]1(C)CC[C@H](O)C(C)(C)[C@@H]1CC3
Details	solubility (mole fraction)
in DMF, 277.15 K	0.00035
in DMF, 284.65 K	0.00051
in DMF, 289.15 K	0.00063
in DMF, 294.65 K	0.00073
in DMF, 297.35 K	0.00089
in DMF, 300.15 K	0.00103
in DMF, 303.05 K	0.00138
in DMF, 308.46 K	0.00187
in DMF, 318.55 K	0.00294
in DMSO, 293.95 K	0.00015
in DMSO, 297.65 K	0.00019
in DMSO, 302.35 K	0.00024
in DMSO, 307.15 K	0.00031
in DMSO, 312.95 K	0.00042
in DMSO, 318.69 K	0.00057
in DMSO, 337.99 K	0.00136
in acetone, 278.65 K	0.00066
in acetone, 283.75 K	0.00087
in acetone, 288.45 K	0.00105
in acetone, 293.25 K	0.00127
in acetone, 298.05 K	0.00157
in acetone, 302.75 K	0.00193
in acetone, 307.55 K	0.00237
in acetone, 318.36 K	0.0036
in acetonitrile, 277.09 K	3e-05
in acetonitrile, 288.55 K	6e-05
in acetonitrile, 293.35 K	9e-05
in acetonitrile, 298.15 K	0.00013
in acetonitrile, 303.05 K	0.00015
in acetonitrile, 307.55 K	0.00019
in acetonitrile, 312.25 K	0.00026
in acetonitrile, 317.05 K	0.00038
in ethanol, 277.95 K	0.00036
in ethanol, 285.74 K	0.00053
in ethanol, 293.45 K	0.00075
in ethanol, 298.25 K	0.00092
in ethanol, 307.15 K	0.00135
in ethanol, 312.35 K	0.00168
in ethanol, 318.05 K	0.00214
in ethyl acetate, 277.67 K	0.00076
in ethyl acetate, 288.55 K	0.00127
in ethyl acetate, 293.25 K	0.00165
in ethyl acetate, 298.05 K	0.00187
in ethyl acetate, 302.85 K	0.00235
in ethyl acetate, 307.45 K	0.00284
in ethyl acetate, 318.64 K	0.00443
in isopropanol, 278.07 K	0.00047
in isopropanol, 287.81 K	0.0006
in isopropanol, 298.84 K	0.00095
in isopropanol, 307.27 K	0.00159
in methanol, 277.78 K	3e-05
in methanol, 288.15 K	5e-05
in methanol, 298.15 K	9e-05
in methanol, 303.05 K	0.00011
in methanol, 312.15 K	0.00016
in methanol, 316.95 K	0.00021
in methanol, 321.65 K	0.00032
in n-propanol, 278.07 K	0.0009
in n-propanol, 287.81 K	0.00144
in n-propanol, 298.84 K	0.00209
in n-propanol, 307.27 K	0.00304
in n-propanol, 318.93 K	0.00478

— BigSolDB 2.1
